The source of these data is patent publication US4876279A, “Antihypercholesterolemic compounds” (Merck & Co., Inc., priority 1988, dated 1989).

The assay relates to HMG-CoA reductase. Description: HMG-CoA Reductase Inhibition Assay (in vitro). Type of assay: biochemical, rat. To be noted: relative to compactin, arbitrarily assigned a value of 100; IC50 compared with that of compactin determined simultaneously; tested as sodium salt of dihydroxy acid form. Here is the method:
The intrinsic HMG-CoA reductase inhibition activity of the claimed compounds is measured in the in vitro protocol published in J. Med. Chem., 28, P. 347-358 (1985) and described below:
Isolation of HMG-CoA Reductase. Male Holtzman Sprague-Dawley rate (225-250 g) were kept on reversed lighting and fed Purina rat chow containing 3% cholestyramine for 7 days preceding their sacrifice by CO2 asphyxiation. Livers were removed 6 hours into the dark cycle and used immediately to prepare microsomes. […]
Test compounds or compactin (after first being converted to the sodium salt of their dihydroxy acid form in situ by addition of 1 N NaOH (1 equiv)) were added to the assay system in 10-μL volumes at multiconcentration levels. […] Five milliliters of Aquasol-2 (New England Nuclear) was added to each vial, and radioactivity was measured in a Packard Tri Carb Prias scintillation counter. IC50 values were determined by plotting percentage inhibition against test compounds concentration and fitting a straight line to the resulting data by using the least-squares method. For estimation of relative inhibitory potencies, compactin was assigned a value of 100 and the IC50 value of the test compound was compared with that of compactin determined simultaneously.

For the substance “6(R)-[2-[8(S)-(1-Ethoxycarbonylcyclopropanecarbonyloxy)-2(S),6(R)-dimethyl-1,2,6,7,8,8a (R)-hexahydronaphthyl-1(S)]ethyl]-4(R)-hydroxy-3,4,5,6-tetrahydro-2H-pyran-2-one”, the “Relative Potency” value was determined as 11.
With “6(R)-[2-8(S)-(1-Ethoxycarbonylcyclobutanecarbonyloxy)-2(S),6(R)-dimethyl-1,2,6,7,8,8a-(R)-hexahydronaphthyl-1(S)]ethyl]-4(R)-hydroxy-3,4,5,6-tetrahydro-2H-pyrane-2-one” the figure was 65.
